Patent publication US9994587B2, “HIV protease inhibitors” (priority 2014, dated 2018)

Columns and labels:
HIV-1 (NL4-3 strain) = assay: Viral Kinetics GFP Reporter (ViKinG) assay; assay type: cell-based; conditions: Human immunodeficiency virus 1, NL43; 50% NHS; MT4-GFP cells infected with HIV-1 NL4-3; mean of at least two independent experiments
Source text: Viral Kinetics GFP Reporter (ViKinG) Assay
The ViKinG assay is an in vitro kinetic assay that employs the MT4-gag-GFP reporter cell line (Wang et al., “Assessment of the susceptibility of mutant HIV-1 to antiviral agents.” J Virological Methods 165:230-37 (2010)) to quantify the number of new cells infected in each round of replication. The purpose of the ViKinG assay is to identify agents that inhibit HIV progression. Briefly, HIV infection results in tat transactivation of the stably expressed HIV LTR promoter to drive gagGFP expression. Thus, an increase in the number of GFP-MT4 cells results following HIV infection.
MT4-GFP cells (250,000 cells/ml) were bulk-infected with HIV-1 (NL4-3 strain) at low multiplicity of infection (MOI) in RPMI+10% FBS for 24 hours. Cells were then washed once in RPMI+10% FBS and resuspended RPMI+10% or 50% normal human serum (NHS). Test compounds were serial-diluted in DMSO on an ECHO® liquid handling platform (Labcyte Corp., Sunnyvale, Calif.), along with a triple drug control (integrase, protease and NNRTI compounds). The infected MT4-GFP cells were added to a 384-well poly-D-lysine coated black plate with clear bottom in which the diluted test compounds were placed. The cells were seeded at 8,000 cells per well and the final DMSO concentration was 0.4%. The infected cells (Green GFP cells) were quantified at both 24 and 48 hours post incubation using Acumen® eX3 (TTP Labtech Ltd., Hertfordshire, United Kingdom). Viral reproductive ratio (R0) was determined using the number of infected cells at 48 hours divided by the number of infected cells at 24 hours. Percent viral growth inhibition was calculated by [1−(R−Rtripledrug)/(RDMSO−Rtripledrug)]*100. Compound potency IP or IC50 was determined by a 4-parameter dose response curve analysis.

wildtype HIV-1 protease = biological target: T1, wildtype HIV-1 protease (Human immunodeficiency virus type 1 group M subtype B, UniProt P04585); assay: Assay for inhibition of microbial expressed HIV protease (Pepcleav); assay type: biochemical; conditions: wild type HIV-1 protease 20 pM, peptide substrate 400 micromolar, pH 5.5; mean of at least two independent experiments
T1 construct: preincubated with the HIV-1 protease (wild type) enzyme in assay buffer; made in house; host or cells: Escherichia coli
Outline: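 E. coli-expressed enzyme preincubated with inhibitor 30 min at room temperature in 50 mM sodium acetate pH 5.5, 100 mM NaCl, 0.1% BSA, then 400 micromolar peptide substrate added with 20 picomolar protease (final), 1 h at 30° C. Product quantified by LC-MS/MS peak area after formic acid/indinavir quench.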

Compound | IC50 (HIV-1 (NL4-3 strain)) [nM] | IC50 (wildtype HIV-1 protease) [nM]
N[C@H](C(=O)Nc1cccc(F)c1CC[C@@H]1CNC[C@@H](CSc2nnc(-c3ccncc3)o2)O1)C(c1ccc(F)cc1)c1ccc(F)cc1 [Example 91, 4-fluoro-β-(4-fluorophenyl)-N-(3-fluoro-2-{2-[(2R,6S)-6-{[(5-pyridin-4-yl-1,3,4-oxadiazol-2-yl)sulfanyl]methyl}morpholin-2-yl]ethyl}phenyl)-L-phenylalaninamide] | 20 | 0.25
CS(=O)(=O)N1CCC2(CC1)CNC[C@@H](CCc1c(F)cccc1NC(=O)[C@@H](N)[C@@H](c1ccc(Cl)cc1)c1cc(F)cc(F)c1)O2 [Example 93, (βS)-4-chloro-β-(3,5-difluorophenyl)-N-(3-fluoro-2-{2-[(2R)-9-(methylsulfonyl)-1-oxa-4,9-diazaspiro[5.5]undec-2-yl]ethyl}phenyl)-L-phenylalaninamide] | 46 | 11
COC(=O)N[C@H](C(=O)Nc1cccc(F)c1CC[C@@H]1CNCC2(CCN(S(C)(=O)=O)CC2)O1)[C@@H](c1ccc(Cl)cc1)c1cc(F)cc(F)c1 [Example 94, methyl {(1 S,2S)-2-(4-chlorophenyl)-2-(3,5-difluorophenyl)-1-[(3-fluoro-2-{2-[(2R)-9-(methylsulfonyl)-1-oxa-4,9-diazaspiro[5.5]undec-2-yl]ethyl}phenyl)carbamoyl]ethyl}carbamate] | 42 | 11
COC(=O)N[C@H](C(=O)Nc1cncc(F)c1CC[C@@H]1CNCC2(CCOCC2)O1)[C@@H](c1ccc(Cl)cc1)c1cc(F)cc(F)c1 [Example 98, methyl {(1S,2S)-2-(4-chlorophenyl)-2-(3,5-difluorophenyl)-1-[(4-{2-[(2R)-1,9-dioxa-4-azaspiro[5.5]undec-2-yl]ethyl}-5-fluoropyridin-3-yl)carbamoyl]ethyl}carbamate] | 88 | 29
N[C@H](C(=O)Nc1cccc(F)c1CC[C@@H]1CNC[C@@H](COC(=O)NCC(F)(F)F)O1)C(c1ccc(F)cc1)c1ccc(F)cc1 [Example 99, 4-fluoro-β-(4-fluorophenyl)-N-(3-fluoro-2-{2-[(2R,6S)-6-({[(2,2,2-trifluoroethyl)carbamoyl]oxy}methyl)morpholin-2-yl]ethyl}phenyl)-L-phenylalaninamide] | 59 | 15
N[C@H](C(=O)Nc1cncc(F)c1CC[C@@H]1CNC[C@@H](CSc2nnc(-c3ccncc3)o2)O1)C(c1ccc(F)cc1)c1ccc(F)cc1 [Example 103, (S)-2-amino-N-(5-fluoro-4-(2-((2R,6S)-6-(((5-(pyridin-4-yl)-1,3,4-oxadiazol-2-yl)thio)methyl)morpholin-2-yl)ethyl)pyridin-3-yl)-3,3-bis(4-fluorophenyl)propanamide] | 37 | 0.49
